Measurements taken from PubChem BioAssay AID1648 (Sanford-Burnham Center for Chemical Genomics, 2009).
The source made the active and inactive calls. No rule for the calls is given here.

Biological target: Serine/threonine-protein kinase mTOR (Homo sapiens) (UniProt P42345)
Test: binders of mTOR FRB domain, biophysical, NMR (AID 1648)
Settings: NMR binding to FRB domain, chemical shift

Chain of Serine/threonine-protein kinase mTOR (Homo sapiens) (P42345 2015-2114): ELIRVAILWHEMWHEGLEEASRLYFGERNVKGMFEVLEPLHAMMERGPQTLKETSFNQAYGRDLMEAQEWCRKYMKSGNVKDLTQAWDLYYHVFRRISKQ

SMILES	Kd
CC1(C)C(=O)C=C[C@@]2(C)C1=C(O)C(=O)[C@]1(C)C2CC[C@@]2(C)[C@H](c3ccoc3)C[C@H]3O[C@]321 (some centres not stated)	> 4 mM (inactive)
NC(=O)C(=O)NCc1ccc(Cl)cc1	> 4 mM (inactive)
NCCCCN=C(N)N	> 4 mM (inactive)
NC(=S)NC1CCS(=O)(=O)C1 (configuration not stated)	> 4 mM (inactive)
Cc1ccc(N2CCN(C(=O)c3ccccc3)CC2)c(C)c1	> 4 mM (inactive)
CSc1nnc2ccc(-c3cccnc3)nn12	> 4 mM (inactive)
O=C(CSc1ccccc1)N1CCC2(CC1)OCCO2	> 4 mM (inactive)
CC(=O)NCS(=O)(=O)c1ccc(C)cc1	> 4 mM (inactive)
CCOC(=O)Nc1ccc2c(C)cc(=O)oc2c1	> 4 mM (inactive)
Cc1cc(NC(=O)NCCCSc2nncn2C)no1	> 4 mM (inactive)
Nc1nc(-c2nc3ccccc3[nH]2)cs1	> 4 mM (inactive)
Cc1ccc(C)c(S(=O)(=O)NCc2cccnc2)c1	> 4 mM (inactive)
COC(=O)CC1NC2CCCCC2NC1=O (configuration not stated)	> 4 mM (inactive)
Cc1ccccc1NC(=O)CC1NCCNC1=O (configuration not stated)	> 4 mM (inactive)
CC1=C2C(O)C(=O)OC3CC4C(C)(C)C(=O)C=C[C@]4(C)C(CC1)[C@]23C (some centres not stated)	> 4 mM (inactive)
O=c1[nH]c(=S)[nH]c2c1CCC2	> 4 mM (inactive)
O=C(NCc1ccccn1)c1ccc(Cl)cc1Cl	> 4 mM (inactive)
CC(=O)Oc1ccccc1N1C(=O)C=CC1=O	> 4 mM (inactive)
O=S1(=O)C=CC(N2CCCCC2)C1 (configuration not stated)	> 4 mM (inactive)
Cc1nc2cc(NC(=O)Nc3nccs3)ccc2n1C	> 4 mM (inactive)
Oc1ccc(C(=S)N2CCCCC2)cc1Cl	> 4 mM (inactive)
NCc1ccccc1N1CCCCC1	> 4 mM (inactive)

SMILES	Kd
O=C(Nc1ccon1)c1sc2cc(F)ccc2c1Cl	> 4 mM (inactive)
CCn1c(C)c(C(C)=O)c(N2CCOCC2)nc1=S	> 4 mM (inactive)
O=C(O)C1COc2ccccc2O1 (configuration not stated)	> 4 mM (inactive)
CC1=CC(C)C(C(=O)O)C(C(=O)N2CCN(C)CC2)C1 (configuration not stated)	> 4 mM (inactive)
NC(=O)CNC(=O)c1ccc2ccccc2n1	> 4 mM (inactive)
COCCOc1nc2ccccc2nc1C	> 4 mM (inactive)
CC(=O)c1sc(NC(=O)C=C(C)C)nc1C	> 4 mM (inactive)
CCOc1ccc(C)cc1S(=O)(=O)n1ccnc1	> 4 mM (inactive)
O=C1CC(c2c[nH]c3ccccc23)C(=O)N1 (configuration not stated)	> 4 mM (inactive)
O=C(O)c1ccccc1N1CCOCC1	> 4 mM (inactive)
CC(C)(O)[C@@H]1[C@H]2OC(=O)[C@@H]1[C@]1(O)C[C@H]3O[C@]34C(=O)O[C@H]2[C@]14C	> 4 mM (inactive)
Cc1ccc(S(C)(=O)=O)s1	> 4 mM (inactive)
O=C(O)Cn1cnc2ccccc2c1=O	> 4 mM (inactive)
CC(=O)Nc1nnc(-c2ccccn2)o1	> 4 mM (inactive)
Nc1ncnc(NCCO)c1[N+](=O)[O-]	> 4 mM (inactive)
NC(=O)CN1CCCCCC1=O	> 4 mM (inactive)
C/C=C(\C)c1nnc(NC(=O)c2ccco2)s1	> 4 mM (inactive)
CCCc1ncc(C(O)c2cccc3ccccc23)n1C (configuration not stated)	> 4 mM (inactive)
Cc1cc(C(=O)Nc2sc(C)c(C)c2C#N)c(C)o1	> 4 mM (inactive)
O=C(O)c1ccc2c(c1)OCCO2	> 4 mM (inactive)
Nc1ccc(S(=O)(=O)N2CCOCC2)cc1	> 4 mM (inactive)
Nc1ncnc2c1ncn2C1O[C@H](COP(=O)(O)O)[C@@H](O)[C@H]1O (some centres not stated)	> 4 mM (inactive)

SMILES	Kd
COc1cc2nc(N3CCNCC3)nc(N)c2cc1OC	> 4 mM (inactive)
O=C1NC(=S)NC(=O)C1=Cc1ccncc1	> 4 mM (inactive)
CC(=O)c1c(O)n(C)c(=S)n(C)c1=O	> 4 mM (inactive)
NC1CN2CCC1CC2 (configuration not stated)	> 4 mM (inactive)
COc1cc2c(cc1OC)C(C)NCC2 (configuration not stated)	> 4 mM (inactive)
COc1cc(OC)c(OC)cc1C=O	> 4 mM (inactive)
CC(=O)O[C@H]1CC[C@@]2(C)C(=CC(=O)C3C4CCC(C(C)CCCC(C)C)[C@@]4(C)CCC32)C1 (some centres not stated)	> 4 mM (inactive)
COc1cnn(-c2ccccc2)c(=O)c1N(C)C	> 4 mM (inactive)
O=C(O)c1ccc(CN2CCOCC2)cc1	> 4 mM (inactive)
O=C(O)CC[N+](=O)[O-]	> 4 mM (inactive)
COc1cc2c(cc1OC)C1=C(C#N)CCC(=O)N1CC2	> 4 mM (inactive)
CS(=O)(=O)N1CCN(C(=O)Cc2cccs2)CC1	> 4 mM (inactive)
Cc1cc(NC(=O)CSc2nncn2C)no1	> 4 mM (inactive)
O=S(=O)(c1cccc(Cl)c1)N1CCCC1	> 4 mM (inactive)
c1ccc(-c2nsc(N3CCNCC3)n2)cc1	> 4 mM (inactive)
Cn1c(SCC(=O)NCCO)nc2ccccc2c1=O	> 4 mM (inactive)
Cc1nc2ccccc2c(=O)[nH]1	> 4 mM (inactive)
c1ccc(CCc2nc(-c3cccnc3)no2)cc1	> 4 mM (inactive)
CC(=O)Oc1c(-c2ccccc2)oc2c(CC=C(C)C)c3c(c(OC(C)=O)c2c1=O)C=CC(C)(C)O3	> 4 mM (inactive)
C[C@@H]1O[C@@H](O[C@H]2CC[C@]3(C=O)C4CC[C@]5(C)[C@@H](C6=CC(=O)OC6)CC[C@]5(O)C4CC[C@]3(O)C2)[C@H](O)[C@H](O)[C@H]1O (some centres not stated)	> 4 mM (inactive)
O=C(O)CCCC(=O)Nc1nccs1	> 4 mM (inactive)
Cn1nc(C(=O)NC2CCCCC2)c2ccccc2c1=O	> 4 mM (inactive)

SMILES	Kd
O=C1CSC(=O)N1CNc1ccccc1	> 4 mM (inactive)
COc1cccc(O)c1O	> 4 mM (inactive)
CC1=C(/C=C/C(C)=C/C=C/C(C)=C/CO)C(C)(C)CCC1	> 4 mM (inactive)
N=C1/C(=C\c2ccco2)C(=O)N=C2SC=NN12	> 4 mM (inactive)
Cc1ccccc1NS(=O)(=O)c1ccc(F)cc1	> 4 mM (inactive)
O=c1cnnc(Nc2ccc(O)cc2)[nH]1	> 4 mM (inactive)
NC(=O)CSc1ccc2nnc(-c3cccs3)n2n1	> 4 mM (inactive)
O=C(Nn1cnnc1)c1cc2c(s1)CCCC2	> 4 mM (inactive)
NCCCCNCCCN	> 4 mM (inactive)
OCC1CCCC1O (configuration not stated)	> 4 mM (inactive)
CC(C)=CCCC1(C)C=Cc2c(O)c3c(c(CC=C(C)C)c2O1)OC12C(=CCCC1C(C)(C)O[C@@]2(C/C=C(\C)C(=O)O)C(=O)O)C3=O (some centres not stated)	> 4 mM (inactive)
CC1=C(C(N)=O)C(c2cccs2)C(C(N)=O)=C(C)N1	> 4 mM (inactive)
Cn1nc(-c2ccccc2)cc1N	> 4 mM (inactive)
COc1cc(/C=C/C(=O)O)ccc1O	> 4 mM (inactive)
NC(=O)c1ccc(NC(=O)c2ccco2)cc1	> 4 mM (inactive)
NCc1ccc(-n2cccc2)cc1	> 4 mM (inactive)
Cc1ccc(C(C)C)cc2c(C)ccc1-2	> 4 mM (inactive)
OCCCc1nc2ccccc2[nH]1	> 4 mM (inactive)
O=C(NN1C(=O)CSC1=S)c1ccccc1	> 4 mM (inactive)
C=CCn1c(=S)[nH]c2ccc(Br)cc2c1=O	> 4 mM (inactive)
O=C(O)c1ccc(Nc2nncc(=O)[nH]2)cc1	> 4 mM (inactive)
